Measurements: patent publication US5710150A, “Benzazepine derivative, pharmaceutical composition thereof, and intermediate thereof” (Yamanouchi Pharmaceutical Co., Ltd., priority 1993, dated 1998)

Tests used:
[1] = Water diuresis action in conscious rats (oral administration); type: in vivo, male Wister rats; settings: 3 mg/kg oral
Method: Each compound to be tested was suspended in 0.5% methylcellulose solution and orally administered in a dose of 3 mg/kg to male Wister rats (body weight, 270 to 300 g) which have been subjected to fasting with no water for 16 to 20 hours. Using a metabolic cage, urine samples were collected just after the administration of each test sample until 4 hours thereafter to measure the amount of urine.

V1 = V1 antagonism in conscious rats (oral administration), AVP-induced diastolic blood pressure increase; type: in vivo, male Wister rats; settings: 1 mg/kg oral, 30 minutes to 6 hours after administration, AVP 30 mU/kg i.v.
[2] = target: T1, arginine vasopressin V1 receptor (Rattus norvegicus, UniProt P30560); assay: V1 receptor binding assay ([3H]-Arg-vasopressin, rat liver membrane); settings: for antagonism on V1 receptor (in words): compared with OPC-31260 and OPC-21268; for Ki: rat liver membrane, [3H]-Arg-vasopressin 2 nM, 30° C., 30 minutes, pH 8.0, read-out: Binding activity on arginine vasopressin V1 receptor (pKi) (converted)
T1 construct: A rat liver membrane sample was prepared; from tissue; host or cells: rat liver membranes
T1 sequence (P30560 whole entry): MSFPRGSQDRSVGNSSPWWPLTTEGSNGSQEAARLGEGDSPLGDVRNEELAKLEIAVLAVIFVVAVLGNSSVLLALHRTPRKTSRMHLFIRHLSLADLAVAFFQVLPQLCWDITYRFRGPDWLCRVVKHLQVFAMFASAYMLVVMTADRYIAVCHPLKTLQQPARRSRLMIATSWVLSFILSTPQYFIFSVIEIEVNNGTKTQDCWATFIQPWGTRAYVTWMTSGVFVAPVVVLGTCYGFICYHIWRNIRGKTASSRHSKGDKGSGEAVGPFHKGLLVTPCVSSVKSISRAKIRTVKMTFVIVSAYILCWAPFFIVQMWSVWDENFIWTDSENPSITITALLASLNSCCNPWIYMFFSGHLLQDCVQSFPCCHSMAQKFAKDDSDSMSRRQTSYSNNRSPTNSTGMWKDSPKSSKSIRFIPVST
Summary of the method: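 Rat liver membranes (70 μg) were incubated with 2 nM [3H]-Arg-vasopressin and test drug (10^-8 to 10^-4 M) for 30 min at 30° C in pH 8.0 Tris-HCl with MgCl2, EDTA, 0.1% BSA. Bound label was filter-trapped and scintillation-counted, nonspecific binding defined with 10^-6 M vasopressin; Ki from inhibition ratio and Scatchard KD, reported as pKi.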

[3] = target: arginine vasopressin V2 receptor (Oryctolagus cuniculus, UniProt G1TA00); assay: V2 receptor binding assay ([3H]-Arg-vasopressin, rabbit renal medulla membrane); settings: for antagonism on V2 receptor (in words): compared with OPC-31260 and OPC-21268; for Binding activity on arginine vasopressin V2 receptor (pKi): rabbit renal medulla membrane, [3H]-Arg-vasopressin 2 nM
Chain of arginine vasopressin V2 receptor (G1TA00 78-446): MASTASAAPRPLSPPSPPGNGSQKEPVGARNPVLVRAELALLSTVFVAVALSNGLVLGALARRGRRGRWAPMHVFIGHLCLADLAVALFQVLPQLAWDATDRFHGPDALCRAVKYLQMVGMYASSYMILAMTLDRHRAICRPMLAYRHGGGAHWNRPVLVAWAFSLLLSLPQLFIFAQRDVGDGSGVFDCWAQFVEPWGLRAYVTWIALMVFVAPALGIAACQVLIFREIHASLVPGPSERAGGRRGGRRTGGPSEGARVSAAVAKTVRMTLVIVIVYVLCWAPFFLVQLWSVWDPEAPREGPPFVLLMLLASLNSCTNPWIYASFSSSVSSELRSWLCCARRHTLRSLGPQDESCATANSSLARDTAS

Compound	amount of urine compared with solvent-administered group, 2 to 4 hours (in words) ([1]; 2 hours to 4 hours after administration)	amount of urine relative to solvent-administered group, 0 to 2 hours ([1]; just after administration to 2 hours later)	Pressure increment by AVP (before compound = 100%) (V1)	antagonism on V1 receptor (in words) [2]	Ki [2]	antagonism on V2 receptor (in words) [3]	Binding activity on arginine vasopressin V2 receptor (pKi) [3]
Cc1ccccc1C(=O)Nc1ccc(C(=O)N2CCCC(N(C)C)c3ccccc32)cc1 (centres unmarked) [Comparative compound (1), OPC-31260]	almost the same as that in the solvent-administered group	11 times					
CN(C)C1CCN(C(=O)/C=C2/c3ccccc3N(C(=O)c3ccc(NC(=O)c4ccccc4-c4ccccc4)cc3)CCC2(F)F)CC1.Cl [Example 13, (Z)-4'-[[4,4-difluoro-5-[[(4-dimethylaminopiperidino)carbonyl]methylene]-2,3,4,5-tetrahydro-1H-1-benzazepin-1-yl]carbonyl]-2-phenylbenzanilide hydrochloride]			≤ 50%	excellent antagonisms on both V1 and V2 receptors	0.0794 nM	excellent antagonisms on both V1 and V2 receptors	9.58
CN1CCN(C(=O)/C=C2/c3ccccc3N(C(=O)c3ccc(NC(=O)c4ccccc4-c4ccccc4)cc3)CCC2(F)F)CC1.Cl [Example 11, (Z)-4'-[[4,4-difluoro-5-(4-methyl-1-piperazinyl)carbonylmethylene-2,3,4,5-tetrahydro-1H-1-benzazepin-1-yl]carbonyl]-2-phenylbenzanilide hydrochloride]			≤ 50%	excellent antagonisms on both V1 and V2 receptors	1.29 nM	excellent antagonisms on both V1 and V2 receptors	9.06
CN1CCCN(C(=O)/C=C2/c3ccccc3N(C(=O)c3ccc(NC(=O)c4ccccc4-c4ccccc4)cc3)CCC2(F)F)CC1.Cl [Example 24, (Z)-4'-[[4,4-difluoro-5-[[(4-methylhexahydro-1,4-diazepin-1-yl)carbonyl]methylene]-2,3,4,5-tetrahydro-1H-1-benzazepin-1-yl]carbonyl]-2-phenylbenzanilide hydrochloride]			≤ 50%	excellent antagonisms on both V1 and V2 receptors	0.0316 nM	excellent antagonisms on both V1 and V2 receptors	9.26
